Results: US20260263550A1, “METHODS AND COMPOSITIONS FOR TREATING, PREVENTING, INHIBITING, AMELIORATING OR DELAYING THE ONSET OF OPHTHALMIC CONDITIONS” (Stealth BioTherapeutics Inc., priority 2021, published 2026)

Columns and labels:
[1] = test system: iPSC-derived RPE cells from AMD donors; experiment: Measurement of mitochondrial function (Seahorse XF Cell Mito Stress Test); assay type: cell-based, human; conditions: 10, 100, 1000 nM, treatment began 24 hours prior to assay, FIGS. 8AA-8AL
Experimental: Measurement of mitochondrial function. Analysis of mitochondrial function was performed on live iPSC-derived RPE cells from AMD donors (n=3; 2 atrophic with GA, 1 exudative) treated with drug (elamipretide, compound of Formula IIa, or vehicle) as described below and iPSC-derived RPE cells from non-diseased controls (n=2) using the XFe96 Extracellular Flux Analyzer (Agilent Technologies, Santa Clara, California, www.agilent.com) and the Seahorse XF Cell Mito Stress Test (CMST) Kit (Agilent Technologies). iPSC-derived RPE cells were seeded onto a laminin-coated Seahorse XF plates and grown until confluent. Data were normalized by cell count. Drug treatments began 24 hours prior to assay. […]
Cells were stained with DAPI and counted by ImageJ software (National Institute of Health, Bethesda, Maryland, www.nih.gov). […] Oxygen consumption rate was detected under basal conditions followed by the sequential addition of oligomycin, carbonyl cyanide 4-(trifluoromethoxy) phenylhydrazone (FCCP), rotenone, and antimycin A. From these sequential additions, the following parameters can be derived: basal respiration, ATP production, maximal respiration, and spare respiratory capacity.

[2] = 10-day SC study in-life assessments (mortality, body weight, tolerability); assay type: in vivo, cynomolgus monkey
Experimental: Administration of Compound of Formula IIa. The test agent (compound of formula IIa) was administered daily via subcutaneous injection into the scapular and mid-dorsal areas for 10 days. The first day of dosing was designated as Day 1. Dose formulations were allowed to warm up at ambient temperature for at least 30 minutes prior to dosing, as appropriate. The animals were temporarily restrained for dose administration and were not sedated. The volume for each dose was administered over 1 (preferred) or 2 (as necessary) separated injections within the designated area. If a designated injection site was not available for a given animal on any day, the next available test site in the rotation was used. The injection area was marked as frequently as required to allow appropriate visualization of administration sites. On the last injection occasion for each quadrant, the last site of injection was circled, and the circled site was collected for necropsy.
In-life procedures, observations, and measurements.

[3] = SC 5 mg/kg/day for 10 days, 3 males

Cc1cc(O)cc(C)c1C[C@H](NC(=O)[C@H](N)CCCNC(=N)N)C(=O)N[C@@H](CCCCN)c1nc(Cc2ccccc2)no1.Cl.Cl.Cl [Formula IIa, (R)-2-amino-N—((S)-1-(((S)-5-amino-1-(3-benzyl-1,2,4-oxadiazol-5-yl)pentyl)amino)-3-(4-hydroxy-2,6-dimethylphenyl)-1-oxopropan-2-yl)-5-guanidinopentanamide]
mitochondrial function (ATP production; basal respiration; maximal respiration; spare respiratory capacity) [1]: efficacy in improving mitochondrial function
tolerability of administration by subcutaneous injection ([2]; 5 mg/kg/day for 10 days): well-tolerated
body weights, differences related to administration [2, 3]: no differences in body weights
mortality during the study [2, 3]: no mortality
